Laboratory results as given in patent US20030066100A1, “Capacitative calcium entry mechanism in porcine oocytes” (priority 2001, published 2003).
Entries after “also recorded” stand apart in the source; their conditions may differ.

Assays:
Type in all cases: cell-based
[1] = system: porcine oocytes; experiment: Divalent cation influx after InsP3 injection, Mn2+-quench technique
Procedure: (§1) The oocytes were loaded with the Ca^2+ indicator dye fura-2 by being incubated in the presence of 2 μM acetoxymethyl ester form of the dye and 0.02% pluronic F-127 (both from Molecular Probes, Inc., Eugene, Oreg.) for 40-50 minutes. After incubation the oocytes were rinsed, exposed to various treatments and the changes in the intracellular free Ca^2+ concentration ([Ca^2+]i) were followed using a Photoscan-2 photon counting fluorescent microscope system (Nikon Corp., Tokyo, Japan) as described by Macháty et al., Biol Reprod 1997a; 56:921-930. Fluorescence was recorded by calculating the ratio of fura-2 fluorescence at 510 mn excited by UV light alternatively at 340 and 380 nm. Intracellular free Ca^2+ levels are presented as fluorescent ratio values with ratios of 1.2 and 6.5 representing 65 and 602 nM Ca^2+, respectively.
To induce the release of Ca^2+ from the intracellular stores, the second messenger InsP3 was injected into the oocytes' cytoplasm using a microinjector (Narishige Co. Ltd., Tokyo, Japan). InsP3 was dissolved in carrier medium consisting of 10 mM Hepes and 100 μM EGTA buffered at pH 7.0. The amount injected was about 40 pl, which is 4% of the total cytoplasmic volume of ˜1000 pl. Microinjection was performed in HEPES-TL-PVA on a heated stage of a Nikon Diaphot inverted microscope (Nikon Corp., Tokyo, Japan).
The onset of a divalent cation influx after a Ca^2+ transient was investigated by using the manganese (Mn^2+)-quench technique disclosed by Hallam et al., Biochem. J. 1988; 255:179-184. Release of Ca^2+ from the intracellular stores was stimulated by intracellular injection of approximately 40 pl of 2.5 μM InsP3, the InsP3 receptor agonist. As a Ca^2+ surrogate, Mn^2+ was added to the external medium. Mn^2+ was reported to be able to translocate across the plasma membrane, bind fura-2 and quench its fluorescence. This technique enables measurement of divalent cation influx even when Ca^2+ release from the internal stores is coincident. The entry of Mn^2+ into the cell was monitored by imaging the resulting quench in fura-2 fluorescence at 510 nm excited alternatively at 340 and 360 nm. While the signal resulting from the 340 nm excitation is [Ca^2+]i sensitive, at 360 nm fura-2 fluorescence is independent of [Ca^2+]i and any decrease in fluorescence is due only to Mn^2+ entry.

[2] = system: porcine oocytes; experiment: Capacitative Ca2+ entry in oocytes expressing Drosophila trp; details: 1 mM La3+
Text: The plasmid vector pBluescript KS, containing the Drosophila trp cDNA ctrp-9 downstream of the T7 promoter (a generous gift from C. Montell) was transfected into Escherichia coli DH5α cells. Plasmid DNA was isolated and linearized with the restriction endonuclease KpnI (Promega Corp., Madison, Wis.) and mRNA was transcribed from the cDNA with T7 polymerase using the RiboMAX™ Large Scale RNA Production System (Promega), following the manufacturer's recommendations. In order to produce capped RNA transcripts, the reaction was performed in the presence of 3 mM m^7G(5′)ppp(5′)G (Boehringer-Mannheim Corp., Indianapolis, Ind.). Purified RNA was precipitated with 0.3 M sodium acetate and ethanol. The pellet was resuspended in diethylpyrocarbonate (DEPC)-treated water containing RNasin (1 IU/μl; from Promega) to a final concentration of approximately 800 ng/μl and the samples were stored in 3 μl aliquots at −70° C.
The Drosophila trp protein was expressed in porcine oocytes by injecting approximately 32 pg mRNA made by in vitro transcription of the cDNA and allowing 15 hours for translation. Control oocytes were injected with the carrier medium (DEPC-treated water). […] The baseline fluorescence of the oocytes was then recorded in Ca^2+-free HEPES-TL-PVA, and changes in [Ca^2+]i were measured for 20-30 minutes after the addition of Ca^2+-containing medium.

[3] = system: porcine oocytes; experiment: Capacitative Ca2+ entry after store depletion and re-addition of Ca2+ (fura-2 fluorescence)
Procedure: as §1
(§2) A Ca^2+ influx was generated in porcine oocytes by the depletion of the intracellular Ca^2+ stores. […] It is routinely used to drain the intracellular stores of their Ca^2+ content. Fura-2-loaded oocytes were incubated in Ca^2+-free HEPES-TL-PVA medium in the presence of 10-50 μM thapsigargin for 3 hours to deplete intracellular Ca^2+ stores. After washing in Ca^2+-free medium (to remove thapsigargin and ensure that the intracellular stores remain empty), normal Ca^2+-containing medium was added to the oocytes and the changes in the [Ca^2+]i were measured. Oocytes incubated in Ca^2+-free HEPES-TL-PVA for 3 hours without thapsigargin were used to show the Ca^2+ entry under normal conditions, when the intracellular Ca^2+ stores were full.

[4] = system: porcine oocytes; experiment: Ca2+ release by thapsigargin in Ca2+-free medium (fura-2 fluorescence)
Procedure: as §1
as §2, with “Oocytes incubated in Ca^2+-free HEPES-TL-PVA for 3 hours without thapsigargin were used to show the Ca^2+ entry under normal conditions, when the intracellular Ca^2+ stores were full.” left out

[5] = 1 mM La3+, InsP3 microinjected, Mn2+ added

O=P(O)(O)O[C@@H]1[C@H](O)[C@H](O)[C@@H](OP(=O)(O)O)[C@H](OP(=O)(O)O)[C@H]1O [InsP3, inositol 1,4,5-trisphosphate]
oocytes with rapid decline in fluorescence well below the basal value (Mn2+ entry) ([1]; InsP3 microinjected, 3 mM Mn2+ in the external medium): 14/14
oocytes with transient elevation in fluorescence at 340 nm excitation (increase in [Ca2+]i) ([1]; injection of about 40 pl of 2.5 μM InsP3): 16 out of 16

[La+3] [La^3+, lanthanum]
block of Ca2+ entry-evoked [Ca2+]i increase [2]: completely blocked
block of cation influx and decline in fluorescence at both wavelengths [1, 5]: totally blocked
oocytes in which fluorescence intensities stayed near the resting values [1, 5]: 7/7
block of thapsigargin-evoked Ca2+ entry ([3]; 1 mM La3+): totally inhibited; also recorded: completely blocked
oocytes in which thapsigargin-evoked Ca2+ entry was blocked ([3]; 1 mM La3+): 11/11

C/C=C(/C)C(=O)O[C@H]1C(C)=C2[C@H]([C@@H]1OC(=O)CCCCCCC)[C@@](C)(OC(C)=O)C[C@H](OC(=O)CCC)[C@@]1(O)[C@H]2OC(=O)[C@@]1(C)O [thapsigargin]
change in [Ca2+]i ([4]; 10-50 μM thapsigargin in Ca2+-free medium): induced an increase in [Ca^2+]i
increase in [Ca2+]i relative to 50 μM ([4]; 10 and 20 μM thapsigargin, Ca2+-free medium): slightly smaller increases in [Ca^2+]i
start of the increase in [Ca2+]i after adding the HEPES-TL-PVA medium ([3]; after thapsigargin store depletion): 0 to 300 s
oocytes showing Ca2+ entry (rise in [Ca2+]i) after re-addition of Ca2+ ([3]; stores emptied with thapsigargin for 3 hours in Ca2+-free medium): 15 out of 18
